In brackets after ≈: the same amount, converted by molar mass.
Key:
Escherichia coli [1] = test: Antibacterial activity against Escherichia coli harboring TolC deletion mutant by microbroth dilution method; assay type: functional; conditions: Escherichia coli; read-out: MIC
Escherichia coli [2] = test: Antibacterial activity against Escherichia coli K-12 by microbroth dilution method; assay type: functional
Proteus vulgaris = test: Antibacterial activity against Proteus vulgaris ATCC 33420 by microbroth dilution method; assay type: functional
Enterococcus faecalis = test: Antibacterial activity against Enterococcus faecalis ATCC 33186 by microbroth dilution method; assay type: functional; conditions: Enterococcus faecalis, ATCC 33186; read-out: MIC
Staphylococcus aureus [3] = test: Antibacterial activity against methicillin-resistant Staphylococcus aureus NRS70 by microbroth dilution method; assay type: functional; conditions: Staphylococcus aureus, NRS70; read-out: MIC
Staphylococcus aureus [4] = test: Antibacterial activity against methicillin-sensitive Staphylococcus aureus ATCC 29213 by microbroth dilution method; assay type: functional; conditions: Staphylococcus aureus, ATCC 29213; read-out: MIC
Streptococcus pneumoniae = test: Antibacterial activity against Streptococcus pneumoniae R6 by microbroth dilution method; assay type: functional; conditions: Streptococcus pneumoniae, R6; read-out: MIC
Proteus mirabilis = test: Antibacterial activity against Proteus mirabilis ATCC 25933 by microbroth dilution method; assay type: functional
[5] = tested on: Mycobacterium tuberculosis; test: Antitubercular activity against Mycobacterium tuberculosis H37Rv by microbroth dilution method; assay type: functional; conditions: Mycobacterium tuberculosis, H37Rv; read-out: MIC
Bacillus anthracis = test: Antibacterial activity against Bacillus anthracis Sterne 34F2 by microbroth dilution method; assay type: functional; conditions: Bacillus anthracis, Sterne 34F2; read-out: MIC
Streptococcus pyogenes = test: Antibacterial activity against Streptococcus pyogenes ATCC 700294 by microbroth dilution method; assay type: functional; conditions: Streptococcus pyogenes, ATCC 700294; read-out: MIC
Acinetobacter baumannii = test: Antibacterial activity against Acinetobacter baumannii ATCC 19606 by microbroth dilution method; assay type: functional, ATCC 19606 = CIP 70.34 = JCM 6841; conditions: Acinetobacter baumannii, ATCC 19606 = CIP 70.34 = JCM 6841; read-out: MIC
Burkholderia cepacia = test: Antibacterial activity against Burkholderia cepacia ATCC 25416 by microbroth dilution method; assay type: functional
Pseudomonas aeruginosa = test: Antibacterial activity against Pseudomonas aeruginosa PAO1 by microbroth dilution method; assay type: functional
Bacillus subtilis = test: Antibacterial activity against Bacillus subtilis ATCC 23857 by microbroth dilution method; assay type: functional; conditions: Bacillus subtilis, ATCC 23857; read-out: MIC
Klebsiella pneumoniae = test: Antibacterial activity against Klebsiella pneumoniae ATCC 33495 by microbroth dilution method; assay type: functional

Compound | MIC (Escherichia coli [1]) | MIC (Escherichia coli [2]) | MIC (Proteus vulgaris) | MIC (Enterococcus faecalis) | MIC (Staphylococcus aureus [3]) | MIC (Staphylococcus aureus [4]) | MIC (Streptococcus pneumoniae) | MIC (Proteus mirabilis) | MIC [5] | MIC (Bacillus anthracis) | MIC (Streptococcus pyogenes) | MIC (Acinetobacter baumannii) | MIC (Burkholderia cepacia) | MIC (Pseudomonas aeruginosa) | MIC (Bacillus subtilis) | MIC (Klebsiella pneumoniae)
COc1ccc2cc1Oc1cc(ccc1OC)CCC(NCCCc1ccccc1)CCCC2 (stereo unspecified) | 12.5 µg/mL (≈ 27.2 µM) | > 100 µg/mL | > 100 µg/mL | 25 µg/mL (≈ 54.4 µM) | 25 µg/mL (≈ 54.4 µM) | 25 µg/mL (≈ 54.4 µM) | 50 µg/mL (≈ 109 µM) | > 100 µg/mL | 50 µg/mL (≈ 109 µM) | 50 µg/mL (≈ 109 µM) | 50 µg/mL (≈ 109 µM) | 50 µg/mL (≈ 109 µM) | > 100 µg/mL | > 100 µg/mL | 25 µg/mL (≈ 54.4 µM) | > 100 µg/mL
COc1ccc2cc1Oc1cc(ccc1OC)CCC(NCCc1ccc(O)cc1)CCCC2 (stereo unspecified) | 100 µg/mL (≈ 217 µM) | > 100 µg/mL | > 100 µg/mL | 100 µg/mL (≈ 217 µM) | 100 µg/mL (≈ 217 µM) | > 100 µg/mL | 100 µg/mL (≈ 217 µM) | > 100 µg/mL | 100 µg/mL (≈ 217 µM) | 50 µg/mL (≈ 108 µM) | 100 µg/mL (≈ 217 µM) | > 100 µg/mL | > 100 µg/mL | > 100 µg/mL | 50 µg/mL (≈ 108 µM) | > 100 µg/mL
COc1ccc2cc1Oc1cc(ccc1OC)CCC(OC(=O)NCCc1ccccc1)CCCC2 (stereo unspecified) | > 100 µg/mL | > 100 µg/mL | > 100 µg/mL | > 100 µg/mL | > 100 µg/mL | > 100 µg/mL | > 100 µg/mL | > 100 µg/mL | > 100 µg/mL | > 100 µg/mL | > 100 µg/mL | > 100 µg/mL | > 100 µg/mL | > 100 µg/mL | > 100 µg/mL | > 100 µg/mL
COc1ccc2cc1Oc1cc(ccc1OC)CCC(NC(=O)NCCc1ccc(F)cc1)CCCC2 (stereo unspecified) | > 100 µg/mL | > 100 µg/mL | > 100 µg/mL | > 100 µg/mL | > 100 µg/mL | > 100 µg/mL | > 100 µg/mL | > 100 µg/mL | > 100 µg/mL | > 100 µg/mL | > 100 µg/mL | > 100 µg/mL | > 100 µg/mL | > 100 µg/mL | > 100 µg/mL | > 100 µg/mL
COc1ccc2cc1Oc1cc(ccc1OC)CCC(NCc1ccc(C(F)(F)F)cc1)CCCC2 (stereo unspecified) | 6.25 µg/mL (≈ 12.5 µM) | > 100 µg/mL | > 100 µg/mL | > 100 µg/mL | 12.5 µg/mL (≈ 25 µM) | > 100 µg/mL | > 100 µg/mL | > 100 µg/mL | 25 µg/mL (≈ 50 µM) | 12.5 µg/mL (≈ 25 µM) | 50 µg/mL (≈ 100 µM) | > 100 µg/mL | > 100 µg/mL | > 100 µg/mL | 12.5 µg/mL (≈ 25 µM) | > 100 µg/mL
NNC(=O)c1ccncc1 [ISONIAZID] | – | – | – | – | – | – | – | – | 0.03 µg/mL (≈ 0.219 µM) | – | – | – | – | – | – | –
COc1ccc2cc1Oc1cc(ccc1OC)CCC(N1CCN(C)CC1)CCCC2 (stereo unspecified) | 50 µg/mL (≈ 118 µM) | > 100 µg/mL | > 100 µg/mL | 100 µg/mL (≈ 236 µM) | 50 µg/mL (≈ 118 µM) | 100 µg/mL (≈ 236 µM) | 100 µg/mL (≈ 236 µM) | > 100 µg/mL | 50 µg/mL (≈ 118 µM) | 100 µg/mL (≈ 236 µM) | > 100 µg/mL | 100 µg/mL (≈ 236 µM) | > 100 µg/mL | > 100 µg/mL | 50 µg/mL (≈ 118 µM) | > 100 µg/mL
COc1ccc2cc1Oc1cccc(c1)CCCCC(NCCc1ccc(F)cc1)CC2 (stereo unspecified) | 12.5 µg/mL (≈ 28.8 µM) | > 100 µg/mL | > 100 µg/mL | 12.5 µg/mL (≈ 28.8 µM) | 12.5 µg/mL (≈ 28.8 µM) | 25 µg/mL (≈ 57.7 µM) | 50 µg/mL (≈ 115 µM) | > 100 µg/mL | 25 µg/mL (≈ 57.7 µM) | 25 µg/mL (≈ 57.7 µM) | 50 µg/mL (≈ 115 µM) | 50 µg/mL (≈ 115 µM) | > 100 µg/mL | > 100 µg/mL | 6.25 µg/mL (≈ 14.4 µM) | > 100 µg/mL
COc1ccc2cc1Oc1cc(ccc1OC)CCC(NCCN(C)C)CCCC2 (stereo unspecified) | > 100 µg/mL | > 100 µg/mL | > 100 µg/mL | > 100 µg/mL | > 100 µg/mL | > 100 µg/mL | > 100 µg/mL | > 100 µg/mL | 100 µg/mL (≈ 242 µM) | > 100 µg/mL | > 100 µg/mL | > 100 µg/mL | > 100 µg/mL | > 100 µg/mL | 100 µg/mL (≈ 242 µM) | > 100 µg/mL
COc1ccc2cc1Oc1cc(ccc1OC)CCC(N(CCO)CCO)CCCC2 (stereo unspecified) | > 100 µg/mL | > 100 µg/mL | > 100 µg/mL | > 100 µg/mL | > 100 µg/mL | > 100 µg/mL | > 100 µg/mL | > 100 µg/mL | > 100 µg/mL | > 100 µg/mL | > 100 µg/mL | > 100 µg/mL | > 100 µg/mL | > 100 µg/mL | > 100 µg/mL | > 100 µg/mL
CCN(CC)C1CCCCc2ccc(OC)c(c2)Oc2cc(ccc2OC)CC1 (stereo unspecified) | > 100 µg/mL | > 100 µg/mL | > 100 µg/mL | > 100 µg/mL | > 100 µg/mL | > 100 µg/mL | > 100 µg/mL | > 100 µg/mL | 100 µg/mL (≈ 252 µM) | > 100 µg/mL | > 100 µg/mL | > 100 µg/mL | > 100 µg/mL | > 100 µg/mL | > 100 µg/mL | > 100 µg/mL
